Laboratory results: article PMC10454913, “Neurohypophysial and paracrine vasopressinergic signaling regulates aquaporin trafficking to hydrate marine teleost oocytes” (Frontiers in Endocrinology, 2023)
Bridge positions count the residues as written; N and C are the ends. Ends that are not written are not given here.

Tests used:
[1] = tested on: seabream postvitellogenic ovarian explants; experiment: Avp production by ovarian explants in vitro (Avp ELISA); type: cell-based, gilthead seabream (Sparus aurata)
Description: These observations would be compatible with a role of Avp regulating the intracellular trafficking of Aqp1ab1 and Aqp1ab2 in maturing oocytes, as observed in surrogate amphibian oocytes. […] To test this hypothesis, we carried out in vitro experiments in which the production of Avp by postvitellogenic ovarian explants in response to piscine single-chain recombinant […] evaluated by a custom made Avp enzyme-linked immunosorbent assay (ELISA) ( Supplementary Figure S3 ). To investigate the specificity of the rLh potential regulation, in these experiments we also tested the effect of single-chain recombinant follicle-stimulating hormone (rFsh). […] Pieces of the ovary at the […] stage (400-500 mg) were dissected from naturally spawning seabream females and placed in Petri dishes containing 75% Leivovitz L-15 culture medium with L-glutamine and 100 μg/ml gentamicin at pH 7.5. […] Control groups were treated with an equivalent volume of the cell culture medium used for […] production, or with 0.5% ethanol. After incubation, explants were frozen and stored at -80°C until Avp extraction and determination by ELISA. To determine the Avp levels in ovarian explants incubated in vitro, a competitive ELISA was developed using the specific anti-Avp antiserum and the synthetic Avp to create the standard curve ( Supplementary Figure S3 ). For this, polystyrene ELISA microtiter plates (F96 Maxisorp Nunc Immuno Plates; […] Ovarian explants were homogenized on ice with a glass dounce tissue homogenizer in water containing 0.25% glacial acetic acid in a proportion of 500 μl/100 mg tissue. After incubation of the homogenate at 100°C for 5 min, the samples were centrifuged a 10,000 × g for 5 min at 4°C, and the supernatant recovered in a new tube. […] Absorbance was read at 450 nm with a VICTOR3TM Multilabel Plate Reader (PerkinElmer, Inc.). […] The intra-assay coefficient of variation was 4.64% (calculated by assaying eight replicates of an ovarian sample at 50% of maximum binding on the same plate), whereas the inter-assay coefficient of variation was 8.35%.

[2] = tested on: X. laevis oocytes expressing the seabream Avpr1aa and Aqp1aa, Aqp1ab1 or Aqp1ab2 plus YwhazLb; experiment: Swelling assay (osmotic water permeability, P f) of X. laevis oocytes expressing Avpr1aa and TSA1C aquaporins; type: cell-based
[3] = tested on: seabream ovarian follicles; experiment: In vitro incubation of isolated seabream ovarian follicles (immunostaining, 3H2O uptake, co-immunoprecipitation); type: cell-based, gilthead seabream (Sparus aurata); settings: for Avp-mediated increase in phosphorylation of Aqp1ab1 and Aqp1ab2 and binding of Aqp1ab2 to YwhazLb: 10 µM inhibitor plus 10 µM Avp; for Avp-induced differential localization of Aqp1ab1 and Aqp1ab2 in the oocyte microvilli: 10 µM inhibitor preincubated prior to 10 µM Avp
Protocol: To investigate the physiological significance of the Avp regulation of the […] channel trafficking in seabream oocytes, we determined the dynamics of the subcellular localization of endogenous Aqp1aa, Aqp1ab1, and Aqp1ab2, and their interactions with YwhazLa and -zLb proteins, after Avp treatment in vitro, using the Aqp1ab1- and Aqp1ab2-specific antisera and commercial mammalian YWHAZ antibodies specific for seabream YwhazLa/b or -zLb ([12]). For this, we incubated isolated seabream vitellogenic ovarian follicles with Avp, in the presence or absence of the seabream Avpr1aa and Avpr2aa antagonist TLV or the PKA inhibitor H89, while control follicles were exposed to DMSO vehicle alone ( Figure 8 ).
In other experiments, groups of fully-grown postvitellogenic ovarian follicles (n = 10), manually isolated from the ovary, were incubated with 10 µM Avp in the same culture medium as above, in the presence or absence of 10 µM of the receptor antagonist TLV, or with 0.1% DMSO (controls) for 6 h at 18°C. After incubation, follicles were fixed for immunofluorescence microscopy, frozen in liquid nitrogen and stored at -80°C for further protein extraction, or processed for water uptake assays using radiolabeled water as previously described ([12]).
Isolated ovarian follicles were processed for immunofluorescence microscopy as previously described ([65], [66]). Control sections were incubated with antibodies (1:400 dilution) preadsorbed with the corresponding peptides used for immunization (for aquaporin antibodies), or with the Avp or Oxt synthetic peptides. Secondary antibodies were sheep anti-rabbit IgG Cy3 (Merck #C2306) or goat anti-chicken IgY Alexa Fluor 488 (Invitrogen #A11039) at a 1:1,000 dilution. Sections were counterstained with DAPI (1:10,000), and mounted with Fluoromount™ Aqueous Mounting Medium (Merck #F4680). Immunofluorescence was observed and documented with a Zeiss Axio Imager Z1/Apotome fluorescent microscope (Carl Zeiss Corp.). Changes in Aqp1ab1 and Aqp1ab2 in the oocyte plasma membrane after Avp treatment were evaluated using the ImageJ software v.1.52o (https://imagej.nih.gov/ij/) as previously described ([12]).
X. laevis oocytes and seabream follicles (n = 10) were homogenized in the lysis buffer from the Pierce™ Crosslink Magnetic IP/Co-IP Kit (Pierce Thermo Fisher Scientific, #88805) with a bouncer on ice, and centrifuged at 14,000 × g for 1 min. An aliquot (10%) of the protein extract was collected as “input” and mixed with 2 × Laemmli sample buffer, whereas the remaining extract was incubated overnight at 4°C under constant agitation with magnetic beads previously coated with anti-Aqp1ab1 or anti-Aqp1ab2 antibodies. For rabbit primary antibodies, the immunoprecipitation was carried out using the kit indicated above, and final eluted proteins in 50 µl of elution buffer were mixed with 4 × Laemmli sample buffer supplemented with protease and phosphatase inhibitors. For chicken antibodies, the immunoprecipitation was performed using Dynabeads™ M-280 Tosylactivated (Invitrogen Thermo Fisher Scientific, #14203) following the manufacturer’s instructions. The input and immunoprecipitated samples were immunoblotted as indicated above.

[4] = tested on: X. laevis oocytes expressing the seabream Avpr2aa and Aqp1aa, Aqp1ab1 or Aqp1ab2 plus YwhazLb; experiment: Swelling assay (osmotic water permeability, P f) of X. laevis oocytes expressing Avpr2aa and TSA1C aquaporins; type: cell-based
seabream Avpr2aa = experiment: Activation of seabream Avpr2aa in transfected HEK293T cells (pCRE-luc / pSRE-luc reporters, Fluo-4 AM Ca2+); type: cell-based, gilthead seabream (Sparus aurata); settings: for effect on Avpr2aa activation: antagonist 10^-12 to 10^-5 M before 10^-8 M Avp
seabream Avpr1aa = seabream Avpr1aa (Sparus aurata, UniProt R9X0I6); experiment: Activation of seabream Avpr1aa in transfected HEK293T cells (pCRE-luc / pSRE-luc reporters, Fluo-4 AM Ca2+); type: cell-based, gilthead seabream (Sparus aurata); settings: for IC50: antagonist 1 h before 10^-8 M Avp, HEK293T, read-out: IC50, inhibition of Avpr1aa activation
seabream Oxtrb = seabream Oxtrb (Sparus aurata, UniProt R9WVY7); experiment: Activation of seabream Oxtrb in transfected HEK293T cells (pCRE-luc / pSRE-luc reporters, Fluo-4 AM Ca2+); type: cell-based, gilthead seabream (Sparus aurata); settings: for effect on Oxtrb activation: antagonist 10^-12 to 10^-5 M before 10^-8 M Oxt
[5] = target: seabream arginine vasopressin receptor Avpr1aa (gilthead seabream (Sparus aurata))
[6] = target: seabream oxytocin receptor Oxtrb (gilthead seabream (Sparus aurata))
[7] = target: seabream arginine vasopressin receptor Avpr1aa (gilthead seabream (Sparus aurata)); remark: listed apart in the source
[8] = 10 µM Avp, co-immunoprecipitation and immunoblotting

For `C[C@@H](O)[C@@]1(O)CC[C@H]2[C@@H]3CCC4=CC(=O)CC[C@]4(C)[C@H]3CC[C@@]21C` [17,20β-P, 17α,20β-dihydroxypregn-4-en-3-one], the “increase in Avp synthesis in ovarian explants” value ([1]; 0.1 µg/ml, ~20 h) was 3 fold.

For `CN1CCCC1CCn1cc(C2=C(c3c[nH]c4ccccc34)C(=O)NC2=O)c2ccccc21` (centres unmarked) [Bim-II, bisindolylmaleimide II], the “Avp-induced inhibition of P f” value ([2]; Avpr1aa+Aqp1aa oocytes preincubated with 10 µM inhibitor 1 h before 10 µM Avp) was “prevented”.

With `O=S(=O)(NCCNC/C=C/c1ccc(Br)cc1)c1cccc2cnccc12` [H89] the “Avp-mediated increase in phosphorylation of Aqp1ab1 and Aqp1ab2 and binding of Aqp1ab2 to YwhazLb” value [3] was “blocked”, the “Avp-induced differential localization of Aqp1ab1 and Aqp1ab2 in the oocyte microvilli” value [3] was “prevented” and the “water permeability of follicles (3H2O uptake) in the presence of Avp plus inhibitor” value ([3]; not told) was “reduced”. For the same molecule, the “positive effect of Avp on plasma membrane trafficking of wild-type Aqp1ab1 and Aqp1ab1-S156A” value [4] was “equally abolished” and the “Avp-induced insertion of Aqp1ab1 or Aqp1ab2 into the oocyte plasma membrane / P f increase” value ([4]; Avpr2aa oocytes, 10 µM inhibitor 1 h before 10 µM Avp) was “prevented”.

`COc1cc(OC2CCN(C(C)=O)CC2)ccc1C(=O)N1CCC(N2C(=O)OCc3ccccc32)CC1` [L-371,257, 1-(1-[4-[(N-acetyl-4-piperidinyl)oxy]-2-methoxybenzoyl]piperidin-4-yl)-4H-3,1-benzoxazin-2(1H)-one] was tested, and the “effect on Avpr2aa activation” value (seabream Avpr2aa) was “no effect”.

`C=C[C@]12CCC(=O)C=C1CC[C@H]1[C@@H]3CC[C@H](C(C)=O)[C@@]3(C)CC[C@@H]12` [OD 02-0, 10-ethenyl-19-norprogesterone] was tested, and the “Avp synthesis in ovarian explants in the absence of 17,20β-P” value ([1]; 10 µM, ~20 h) was “not reproduced”.

For `CC#C[C@]1(O)CC[C@H]2[C@@H]3CCC4=CC(=O)CCC4=C3[C@@H](c3ccc(N(C)C)cc3)C[C@@]21C` [RU486], the “17,20β-P-induced increase in Avp synthesis” value ([1]; 100 µM inhibitor with 0.1 µg/ml 17,20β-P) was “completely abolished”.

In the case of `COc1ccc(S(=O)(=O)N2c3ccc(Cl)cc3[C@](O)(c3ccccc3Cl)[C@@H]2C(=O)N2CCC[C@H]2C(N)=O)cc1OC` [SR49059], the “effect on Avpr2aa activation” value (seabream Avpr2aa) is reported as “inhibited”, the IC50 (seabream Avpr1aa) is reported as about 1 nM and the “effect on Oxtrb activation” value (seabream Oxtrb) is reported as “not affected”.

In the case of `Cc1ccccc1C(=O)Nc1ccc(C(=O)N2CCCC(O)c3cc(Cl)ccc32)c(C)c1` (centres unmarked) [TLV, 7-Chloro-5-hydroxy-1-[2-methyl-4-(2-methylbenzoyl-amino)benzoyl]-2,3,4,5-tetrahydro-1H-1-benzazepine], the “water permeability of follicles (3H2O uptake) in the presence of Avp plus inhibitor” value ([3]; 10 µM Avp plus 10 µM inhibitor) is reported as “reduced”, the “Avp-mediated increase in phosphorylation of Aqp1ab1 and Aqp1ab2 and binding of Aqp1ab2 to YwhazLb” value [3] is reported as “blocked” and the “Avp-induced differential localization of Aqp1ab1 and Aqp1ab2 in the oocyte microvilli” value [3] is reported as “prevented”. The “effect on Avpr2aa activation” value (seabream Avpr2aa) was “inhibited”, the “potency at blocking Avpr2aa relative to SR49059” value (seabream Avpr2aa; antagonist before 10^-8 M Avp) was ~ 10 times more potent and the IC50 (seabream Avpr1aa) was about 1 nM. For the same molecule, the “effect on Oxtrb activation” value (seabream Oxtrb) was “not affected”.

With “CYIQNCPRG-NH2 (ends and bridges not checked) [Avp]” the “meiotic maturation or oocyte hydration” value ([3]; 10 µM Avp, 6 h, 18°C) was “did not induce”, the “phosphorylation of Aqp1ab1” value [3, 8] was “more phosphorylated” and the “phosphorylation of Aqp1ab2” value [3, 8] was “increased”. For the same molecule, the “localization of Aqp1aa (follicular epithelium)” value ([3]; 10 µM Avp, immunofluorescence) was “did not appear to change”, the “localization of Aqp1ab1 immunoreactivity” value ([3]; 10 µM Avp, immunofluorescence) was “more concentrated in the most distal part of the microvilli” and the “localization of Aqp1ab2 channel” value ([3]; 10 µM Avp, immunofluorescence) was “localized in a more basal region of the microvilli”. For the same molecule, the “water permeability of follicles (3H2O uptake)” value ([3]; not told) was “higher”, the “reduction of P f” value ([2]; oocytes expressing Avpr1aa + Aqp1aa, 10 µM Avp, 3 h) was 80% and the “oocyte P f triggered by FSK exposure” value ([2]; oocytes expressing Avpr1aa + Aqp1ab2 (+YwhazLb), 10 µM Avp, 10 µM FSK) was “did not affect”. The EC50 (seabream Avpr2aa; Avp on Avpr2aa, HEK293T, read-out: approximate EC50 on cognate receptor) was about 10 nM, the “PKC activation (pSRE-luc)” value (seabream Avpr2aa; HEK293T cells expressing Avpr2aa) was “not activated” and the “pCRE-induced luciferase activity (cAMP)” value (seabream Avpr2aa; HEK293T cells expressing Avpr2aa, 10^-12 to 10^-5 M) was “potent dose-dependent response”. The “intracellular Ca2+ concentration ([Ca2+]i)” value (seabream Avpr2aa; HEK293T cells expressing Avpr2aa, Fluo-4 AM) was “not affected”, the “pCRE-mediated luciferase activity (cAMP)” value (seabream Avpr1aa; HEK293T cells expressing Avpr1aa) was “did not induce measurable increases” and the “pSRE-induced luciferase activity (PKC activation)” value (seabream Avpr1aa; HEK293T cells expressing Avpr1aa, 10^-12 to 10^-5 M, 3 h) was “concentration-dependent increase”. The “intracellular Ca2+ concentration ([Ca2+]i)” value (seabream Avpr1aa; HEK293T cells expressing Avpr1aa, Fluo-4 AM) was “concentration-dependent increase”, the “intracellular Ca2+ concentration ([Ca2+]i)” value (seabream Oxtrb; HEK293T cells expressing Oxtrb, Fluo-4 AM) was “only a slight increase” and the “P f” value ([4]; oocytes co-expressing Avpr2aa and Aqp1aa, 10 µM Avp) was “did not change”. For the same molecule, the “increase in P f” value ([4]; oocytes expressing Avpr2aa + Aqp1ab1, 10 µM Avp) was ~ 2 fold and the “increase in P f” value ([4]; oocytes expressing Avpr2aa + Aqp1ab2+YwhazLb, without FSK pretreatment, 10 µM Avp) was ~ 4 fold.

CYISNCPIG-NH2 (disulfide 1-6; ends not checked) [oxytocin (Oxt, formerly isotocin), synthetic nonapeptide] gave an EC50 of cross-activation of Avpr1aa by Oxt in HEK293T cells (Figure 4D), against that of Avp (fold (EC50 of Oxt over EC50 of Avp)) [5] of 10 and an EC50 of receptor activation (pSRE-luciferase activity and [Ca2+]i) in HEK293T cells expressing Oxtrb, Oxt 10^-12 to 10^-5 M [6] of 1e-08 M.

Molecule CYIQNCPRG-NH2 (disulfide 1-6; ends not checked) [arginine vasopressin (Avp, formerly vasotocin), synthetic nonapeptide] has an EC50 of PKC (pSRE-luciferase) activation and [Ca2+]i increase in HEK293T cells, Avp on Avpr1aa against Oxt on Oxtrb ([5]; scale: fold) of 10 and an EC50 of receptor activation (pSRE-luciferase activity and [Ca2+]i) in HEK293T cells expressing Avpr1aa, Avp 10^-12 to 10^-5 M [7] of 1e-08 M.
